According to article PMC6522510 (Nature Communications, 2019):
Read-outs that look alike come from different tables or passages of the source.

How the values were obtained:
Assay in all cases: Secondary dose-response HTS, Cell Titer Glo; call rule not given here
Format in all cases: cell-based, human
MV4-11 = settings: MV4-11; for EC50: Homo sapiens
U937 = tested on: U937
MOLM-13 = settings: MOLM-13
CMK = settings: CMK
M07e = tested on: M07e
ML2 = settings: ML-2
CHRF288-11 = tested on: CHRF288-11
CMS = tested on: CMS
[1] = secondary high-throughput screen
[2] = secondary high-throughput screen, U937
[3] = secondary high-throughput screen, M07e
[4] = secondary high-throughput screen, CHRF288-11
[5] = secondary high-throughput screen, CMS
[6] = secondary high-throughput screen, U937, read-out: average effective concentration, U937
[7] = secondary high-throughput screen, read-out: average effective concentration, CMK
[8] = secondary high-throughput screen, M07e, read-out: average effective concentration, M07e
[9] = secondary high-throughput screen, read-out: average effective concentration, ML-2
[10] = secondary high-throughput screen, CHRF288-11, read-out: average effective concentration, CHRF288-11

| Compound | average effective concentration, MV4-11 (MV4-11; [1]) | average effective concentration, U937 (U937; [2]) | average effective concentration, MOLM-13 (MOLM-13; [1]) | average effective concentration, CMK (CMK; [1]) | average effective concentration, M07e (M07e; [3]) | average effective concentration, ML-2 (ML2; [1]) | average effective concentration, CHRF288-11 (CHRF288-11; [4]) | average effective concentration, CMS (CMS; [5]) | EC50 (U937; [6]) [nM] | EC50 (M07e; [8]) [nM] | also measured |
| --- | --- | --- | --- | --- | --- | --- | --- | --- | --- | --- | --- |
| N[C@H](CCC(=O)N[C@@H](Cc1c[nH]c2ccccc12)C(=O)O)C(=O)O [GOLOTIMOD] | Inactive | Inactive | Inactive | Inactive | Inactive | Inactive | Inactive | Inactive | – | – | – |
| CNC(=O)c1c(F)cccc1Nc1nc(Nc2cc3c(cc2OC)CCN3C(=O)CN(C)C)nc2[nH]ccc12 [GSK1838705A] | Inactive | – | Inactive | – | Inactive | Inactive | Inactive | Inactive | 6200 | – | EC50 (CMK; [7]): 5800 nM |
| COc1ncc(-c2ccc3nccc(-c4ccnnc4)c3c2)cc1NS(=O)(=O)c1ccc(F)cc1F [GSK-2126458] | – | – | – | – | – | – | – | – | – | – | EC50 (MV4-11; secondary high-throughput screen, read-out: average effective concentration, MV4-11): 1 nM; EC50 (U937; Homo sapiens, U-937, secondary high-throughput screen, U937, read-out: average effective concentration, U937): 1 nM; EC50 (MOLM-13; Homo sapiens, secondary high-throughput screen, read-out: average effective concentration, MOLM-13): 940 nM; EC50 (CMK; Homo sapiens, read-out: average effective concentration, CMK): 1 nM; EC50 (M07e; Homo sapiens, M-07e, secondary high-throughput screen, M07e, read-out: average effective concentration, M07e): 5600 nM; EC50 (ML2; Homo sapiens, secondary high-throughput screen, read-out: average effective concentration, ML-2): 1 nM; EC50 (CHRF288-11; Homo sapiens, HTS, secondary high-throughput screen, CHRF288-11, read-out: average effective concentration, CHRF288-11): 1300 nM; EC50 (CMS; Homo sapiens, HTS, read-out: average effective concentration, CMS): 40 nM |
| O=C1Nc2ccc(I)cc2/C1=C/c1cc(Br)c(O)c(Br)c1 [GW 5074] | Inactive | Inactive | Inactive | Inactive | Inactive | Inactive | Inactive | Inactive | – | – | – |
| CC(C)=CCC[C@]1(C)C=Cc2c(O)c3c(c(CC=C(C)C)c2O1)O[C@]12C(=C[C@@H]4C[C@H]1C(C)(C)O[C@@]2(C/C=C(/C)C(=O)O)C4=O)C3=O [Gambogic acid, reference compound] | – | – | – | – | – | – | – | – | – | – | EC50 (MV4-11; secondary HTS, 72 h, average of triplicate, read-out: EC50 MV4-11): 170 nM; EC50 (U937; Homo sapiens, U-937, secondary HTS, 72 h, average of triplicate, read-out: EC50 U937): 190 nM; EC50 (MOLM-13; Homo sapiens, secondary HTS, 72 h, average of triplicate, read-out: EC50 MOLM-13): 190 nM; EC50 (CMK; Homo sapiens, secondary HTS, 72 h, average of triplicate, read-out: EC50 CMK): 360 nM; EC50 (M07e; Homo sapiens, M-07e, secondary HTS, 72 h, average of triplicate, read-out: EC50 M07e): 240 nM; EC50 (ML2; Homo sapiens, secondary HTS, 72 h, average of triplicate, read-out: EC50 ML2): 150 nM; EC50 (CHRF288-11; Homo sapiens, secondary HTS, 72 h, average of triplicate, read-out: EC50 CHRF288-11): 220 nM; EC50 (CMS; Homo sapiens, secondary HTS, 72 h, average of triplicate, read-out: EC50 CMS): 260 nM |
| O=[N+]([O-])c1c(Nc2cc(F)cc(Cl)c2)ccc2nonc12 [HIF-C2] | Inactive | Inactive | – | Inactive | Inactive | Inactive | Inactive | Inactive | – | – | EC50 (MOLM-13; secondary high-throughput screen, read-out: average effective concentration, MOLM-13): 13 nM |
| O=C1c2ccccc2-c2nc3nnnn3nc21.O=C1c2ccccc2-c2nn3nnnc3nc21 [KP-372-1] | Inactive | – | Inactive | – | – | – | – | – | 10 | 53 | EC50 (CMK; [7]): 24 nM; EC50 (ML2; [9]): 6 nM; EC50 (CHRF288-11; [10]): 38 nM; EC50 (CMS; secondary high-throughput screen, CMS, read-out: average effective concentration, CMS): 31 nM |
| C[C@@H]1CN(CC(=O)Nc2ccc3c(c2)Cc2cccc(-c4cc(=O)cc(N5CCOCC5)o4)c2S3)C[C@H](C)O1 [KU60019] | Inactive | Inactive | Inactive | Inactive | Inactive | Inactive | Inactive | – | – | – | EC50 (CMS; Homo sapiens, HTS, secondary high-throughput screen, CMS, read-out: average effective concentration, CMS): > 10000 nM |
| C[N+](C)(C)[C@@H](Cc1c[nH]c(=S)[nH]1)C(=O)[O-] [L-(+)-ERGOTHIONEINE] | Inactive | Inactive | Inactive | Inactive | – | Inactive | Inactive | Inactive | – | 3200 | – |
| Cn1c(/C=C/C(=O)NO)ccc1/C=C/C(=O)c1cccc(F)c1 [MC1568] | Inactive | – | Inactive | Inactive | – | – | – | Inactive | 3400 | 460 | EC50 (ML2; [9]): 4300 nM; EC50 (CHRF288-11; [10]): 4900 nM |
